Reference: US7091351B2, “Vanadium compounds for treating cancer” (Parker Hughes Institute, priority 1998, dated 2006)

Legend:
Format in all cases: cell-based, human
U373 glioblastoma cells = assay: MTT cytotoxicity assay of vanadocenes, U373 cells; conditions: 24 h
Experimental: Human testicular cancer cell lines, Tera-2 (embryonal carcinoma) and Ntera-2 (pluripotent embryonal carcinoma) were obtained from the American Type Culture Collection (ATCC) (Rockeville, Md.) and propagated in T-25, T-75, or T-150 cm^2 tissue culture flasks (Corning Corp., Corning, N.Y.) in McCoy's 5A medium and Dulbecco's modified Eagle's medium respectively. Both media were supplemented with 10% fetal calf serum (FCS), 4 mM glutamine, 100 U/ml penicillin G, and […] streptomycin sulfate. All tissue culture reagents were obtained from Life Technologies Inc. (GIBCO-BRL), Gaithersburg, Md. Cell lines were cultivated for a minimum of two passages after thawing prior to experimentation. Other cell lines that were used in this study were the human B-lineage acute lymphoblastic leukemia (ALL) cell line NALM-6. Uckun, F. M., Evans, W. E., Forsyth, C. J., Waddick, K. G., Tuel-Ahlgren, L., Chelstrom, L. M., Burkhardt, A., Bolen, J., Myers, D. E. Biotherapy of B-cell precursor leukemia by targeting genistein to CD19-associated tyrosine kinase. Science (Washington DC) 267:886–91, 1995; T-lineage ALL cell line MOLT-3, Waurzyniak, B., Shneider, E. A., Tumer, N., Yanishevski, Y., Gunther, R., Chelstrom, L., Wendorf, H., Myers, D. E., Irvin, J. D., Messinger, Y., Ek, O., Zeren, T., Chandan-Langlie, M., Evans, W. E., Uckun, F. M. In vivo toxicity, pharmacokinetics, and antileukemic activity of TXU (anti-CD7)-pokeweed antiviral protein immunotoxin. Clinical Cancer Research 3:881–890, 1997; AML cell line HL-60, Perentesis, J. P., Waddick, K. G., Bendel, A. E., Shao, Y., Warman, B. E., Chandan-Langlie, M., and Uckun, F. M. Induction of apoptosis in multi-drug resistant andradiation-resistant acute myeloid leukemia cells by a recombinant fusion toxin directed against the granulocyte macrophage colony stimulating factor receptor. Clin. Cancer Res. 3:347–355, 1997; breast cancer cell lines MDA-MB-231 and BT-20, Uckun, F. M., Narla, R. K., Jun, X., Zeren, T., Venkatachalam, T., Waddick, K. G., Rostostev, A., Myers, D. E. Cytotoxic activity of EGF-genstein against breast cancer cells. Clin. Cancer Res. 4:901–912, 1998; glioblastoma cell lines U87 and U373, Narla, R. K., Liu, X., Myers, D. E., and Uckun, F. M. 4-(3′-Bromo-4′hydroxylphenyl)-amino-6,7-dimethoxyquinazoline (WHI-P154): A novel quinazoline derivative with potent cytotoxic activity against human glioblastoma cells. Clin. Cancer Res. 4:1405–1414, 1998.
MTT (3-[4,5-dimethyl thiazol-2-yl]-2,5-diphenyltetrazolium bromide)-based colorimetric assays were used for evaluation of the cytotoxicity of vanadocene compounds. Mosmann, T. Rapid colorimetric assay for cellular growth and survival: application to proliferation and cytotoxicity assays. J. Immunol. Methods, 65: 55–63, 1983. Briefly, cells were harvested with 0.125% (w/v) trypsin-0.02% EDTA (GIBCO-BRL) from exponential-phase maintenance cultures and centrifuged (300 g×5 min). After suspension and counting, cells were dispensed within triplicate 96-well tissue culture plates in 100 μl volumes. After 24 h incubation, the culture medium was discarded and replaced with 100 μl of fresh medium containing serial two-fold dilutions of drugs in medium to yield 1.9 μM to 250 μM. All compounds were reconstituted in DMSO to a concentration of 100 mM, and the stock solution was made fresh for each experiment. Control wells consisted of medium containing 0.25% of DMSO alone were used for solvent control. Culture plates were then incubated for 24 h before adding 10 μl of MTT solution (5 mg/ml in PBS) to each well. Wells containing only medium and MTT were used as controls for each plate. The tetrazolium/formazan reaction was allowed to proceed for 4 h at 37° C., and then 100 μl of the solubilization buffer (10% sodium dodecyl sulfate in 0.1% HCl) were added to all wells and mixed thoroughly to dissolve the dark blue formazan crystals. […]

[1] = tested on: BT-20 breast cancer cells; assay: Immunofluorescence (anti-α-tubulin / toto-3) morphology, BT-20; conditions: 25 μM, 48-72 hr
Experimental: In some experiments, immunofluorescence was used to examine the morphologic features of vanadocene-treated cancer cells. At the end of the indicated treatment period, cells were washed twice with PBS and fixed in 2% paraformaldehyde. The cells were permeabilized and non-specific binding sites were blocked with 2.5% BSA in PBS containing 0.1% Triton X-100 for 30 min. Tubulin expression was examined by immunofluorescence using a monoclonal antibody against α-tubulin (Sigma Chemical Co, St. Louis, Mo.) at a dilution of 1:1000 and an anti-mouse IgG conjugated to FITC. Cells were washed in PBS and counterstained with toto-3 (Molecular Probes Inc., Eugene, Oreg.) for 10 min at a dilution of 1:1000. Cells were washed again with PBS and the coverslips were mounted with Vectashield (Vector Labs, Burlingame, Calif.) and viewed with a confocal microscope (Bio-Rad MRC 1024) mounted in a Nikon Labhophot upright microscope. Digital images were saved on a Jaz disk and processed with Adobe Photoshop software (Adobe Systems, Mountain View, Calif.).

NALM-6 cells = assay: Mitochondrial mass determination, NAO staining; conditions: 0.1-1 μM, 24-96 hr
Experimental: Relative mitochondrial mass was measured by using Becton Dickinson Calibur flow cytometry and the fluorescent stain 10-n-nonyl-acridine orange (NAO), which binds the mitochondrial phospholipid cardiolipin, that has been extensively used to provide an index of mitochondrial mass (28). 1×10^6 compound 29-treated NALM-6 cells at concentrations of 0.1 μM to 1 μM for 24 hr, 48 hr, 72 hr, or 96 hr were incubated with 30 μM of NAO in complete medium for 10 min at room temp in the dark, washed with ice-cold PBS and analyzed using log scale photomultiplier to detect the green fluorescence at 527 nm. Relative change in the mitochondrial mass was measured using the mean fluorescence value of mitochondria of compound 29-treated and vehicle-treated cells.

[Cl-].[Cl-].[V+4].c1cc[cH-]c1.c1cc[cH-]c1 [VDC, VCp2Cl2]
IC50 (U373 glioblastoma cells): 42 µM | morphological features of BT-20 cells [1]: complete disruption of microtubules

bis(4,7-dimethyl-1,10-phenanthroline)sulfatooxovanadium(IV) [Compound 29]
mitochondrial mass (NAO staining intensity, treated versus untreated) (NALM-6 cells): virtually identical staining intensity of NAO
